# Source: patent US20030036556A1, “Zonisamide use in headache” (priority 2001, published 2003)
# Where two headings read alike, the source gives them in different places.
# What was measured:
# cortical focal seizures = conditions: electrical stimulation of the visual cortex in cats; cited from earlier work
# sodium channels = conditions: in vitro, cited from earlier work
# [1] = test system: GABA/benzodiazepine receptor ionophore complex; conditions: in vitro, cited from earlier work
# [2] = test system: CDH (chronic daily headache); assay: Zonisamide for prophylaxis of chronic daily headache (Example 2); format: in vivo, human; conditions: for Mean number of headache days per month: baseline 22
# Method: Sixteen patients who received zonisamide for prophylaxis of CDH (i.e., >15 headache days/month) for at least 3 months were included in this study. […] Zonisamide therapy was initiated at 100 mg/day, and 6 patients were titrated to a zonisamide dosage of 200 mg/day after 2 weeks. Patient headache diaries were used to record information, regarding headache frequency, duration, severity, and disability ratings. Headache severity and disability were rated using a 4-point scale (0=none; 1=mild; 2=moderate; 3=severe). Headache diaries and clinic records were used to determine mean headache duration, frequency, severity, disability for each patient 1 month prior to initiation of zonisamide therapy (baseline) and again 3 months after stable zonisamide dosage was established.
# [3] = test system: refractory migraines and mixed headache disorders; assay: Open-label adjunctive zonisamide treatment of refractory headache patients (Example 1); format: in vivo, human
# Method: Thirty-three (33) patients from an active headache clinic population were selected for open-label treatment with zonisamide. All patients had refractory migraines and mixed headache disorders, as defined by International Headache Society criteria. All had failed or responded poorly to trials with other anticonvulsants as prophylactic therapy. Most patients (n=27) had failed at least 2 such agents, and 17 had failed 3 agents. […] (Table 1). Zonisamide was initiated as adjunctive therapy: 100 mg of the medication was given in the evening or at bedtime every fourth day for 4 to 5 doses. Consequently, dosing was increased to every third day, every other day, and finally to a daily dose. Dose adjustments of zonisamide were made in increments of 100 mg, every 2 to 3 weeks, with a daily maximum dose of 500 mg, in some cases. Headache severity was rated on a 0 to 10 numeric rating scale (NRS).
# [4] = test system: chronic pain disorders (neuropathic pain), refractory migraine headaches; assay: Zonisamide treatment of chronic pain and refractory headache patients (Example 3); format: in vivo, human
# Source text: Twenty-five patients with various chronic pain disorders were selected for treatment with zonisamide. All had neuropathic pain of one kind or another. Fifteen had failed back/neck surgeries with ongoing radicular pain, 4 had complex regional pain syndrome (type 1), 4 had diabetic neuropathy, and 2 had painful sensory neuropathy. All had failed, or responded minimally at best, to trials of numerous other anticonvulsants (neuronal stabilizing agents) for prior treatment of pain symptoms. Eighteen were on such therapy at the time of starting zonisamide therapy. Twenty-two patients with refractory migraine headaches of mixed headache disorders were similarly selected for zonisamide therapy. Most (n=17) had failed 3 or more other neuronal stabilizing agents as prophylaxis therapy for their headaches. […] Zonisamide was begun at 100 mg every third day for 3 to 5 doses, with an increase to every-other-day dosing and then to a daily dose. Dosage changes were made every 2 weeks at a minimum. Headache and pain spores were rated on a 0 to 10 numeric rating scale by each patient.
# [5] = test system: interictal spikes and secondarily generalized seizures; conditions: cortical application of tungstic acid gel in rats; cited from earlier work
# [6] = test system: generalized seizures in the kindled rat model; conditions: cited from earlier work
# [7] = test system: cultured mouse spinal cord neurons; conditions: zonisamide 10-30 μg/mL; cited from earlier work
# [8] = test system: interictal spikes and secondarily generalized seizures; conditions: cortical freezing in cats; cited from earlier work
# [9] = test system: chronic pain disorders, all with neuropathic pain; assay: Zonisamide treatment of chronic pain patients (Example 4); format: in vivo, human
# Method: This study included 30 patients with various chronic pain disorders, all with neuropathic pain (Table 1). All patients had previously failed or responded minimally to numerous other anticonvulsants (neuronal stabilizing agents) for treatment of painful symptoms. Twenty-three patients were on such therapy at the time zonisamide therapy was initiated. Zonisamide therapy was initiated at 100 mg every fourth day for 3 to 6 doses, with an increase to every third day, then to every other day, and finally to a daily dose. Adjustments in the dose of zonisamide were made no more than every 2 weeks. Headache and pain scores were rated on a 0 to 10 numeric rating scale (NRS) by each patient.
# rat hippocampal slices = conditions: zonisamide 10-30 μg/mL; cited from earlier work
# T-type Ca2+ currents = conditions: in vitro, cited from earlier work
# [10] = test system: dopaminergic and serotonergic neurotransmission; conditions: in vivo microdialysis; cited from earlier work
smiles,measurement,setting,value
"NS(=O)(=O)Cc1noc2ccccc12 [zonisamide, 1,2-benzisoxazole-3-methanesulfonamide]",duration of cortical focal seizures,cortical focal seizures,reduced the duration
same,effect on sodium channels,sodium channels,blocks
same,effect on sodium channels,sodium channels; listed as Zonisamide,inhibits
same,binding to the GABA/benzodiazepine receptor ionophore complex,[1]; allosteric fashion,binds
same,changes in chloride flux,[1],does not produce changes
same,Mean disability rating,"[2]; 4-point scale (0=none to 3=severe), after 3 months, baseline 1.48",1.12
same,Mean headache severity rating,"[2]; 4-point scale (0=none to 3=severe), after 3 months, baseline 1.84",1.41
same,Mean headache duration,"[2]; after 3 months at stable dosage, mean dosage 137.5 mg/d, baseline 8.46",6.41 h
same,Mean number of headache days per month,"[2]; after 3 months at stable dosage, mean dosage 137.5 mg/d, n=16",5 days/month
same,Mean number of headache days per month,"[2]; after 3 months at stable dosage, mean dosage 137.5 mg/d, n=16, listed as Zonismide",14.5 days/month
same,decrease of mean disability rating,[2]; after 3 months vs baseline,24%
same,decrease of mean headache rating,[2]; after 3 months vs baseline,23%
same,reduction of mean headache duration,[2]; after 3 months vs baseline,24%
same,reduction of total headache time,[2]; after 3 months vs baseline,50%
same,reduction of mean number of headache days/month,"[2]; after 3 months vs baseline, mean dosage 137.5 mg/d",34%
same,mean weight loss,[2]; in the 9 patients with weight loss,11 lb.
same,adverse events: number of patients with mild diarrhea,[2]; n=16,2 patients
same,adverse events: number of patients with weight loss,[2]; n=16,9 patients
same,tolerability,"[2]; n=16, 3 months",well tolerated
same,Total headache time,"[2]; on zonisamide after 3 months, baseline 186",93 hours/month
same,number of patients (n) with discontinuation due to side effects,[3]; 33 patients,4
same,number of patients (n) with no response,[3]; 33 patients,3
same,number of patients (n) with 25% to 50% decrease in headache frequency,"[3]; after at least 2 months of zonisamide therapy, 33 patients",8
same,number of patients (n) with ≧65% decrease in headache frequency,"[3]; after at least 2 months of zonisamide therapy, 33 patients, 10 still in titration",6
same,patients who did not respond,[3]; of 33 patients,9 % of total
same,patients who dropped the medication due to side effects,[3]; of 33 patients,12 % of total
same,number of patients with pain reductions averaging 60% or better,[4]; 0 to 10 numeric rating scale,6 patients
same,number of patients with reductions in pain of 30% to 50%,[4]; 0 to 10 numeric rating scale,Six
same,number of patients with slight reductions (less than 25%),[4]; 0 to 10 numeric rating scale,Four
same,number of patients with no pain relief and/or side effects,"[4]; human, in vivo",7 patients
same,interictal spikes and secondarily generalized seizures,[5],suppressed
same,effect on threshold for generalized seizures,[6],anticonvulsant activity
same,post-synaptic GABA or glutamate responses,[7],without affecting
same,synaptically-driven electrical activity,[7],suppresses
same,interictal spikes and secondarily generalized seizures,[8],suppressed
same,number of patients with no pain relief and/or reported side effects,[9]; 30 patients,5 patients
same,number of patients with slight (less than 25%) pain reductions,[9]; 30 patients,Five
same,number of patients with pain reductions of 60% or greater,"[9]; after at least 2 months of zonisamide therapy, 30 patients",10 patients
same,number of patients with 30% to 50% reductions in pain,"[9]; after at least 2 months, 30 patients",7 patients
same,share of patients with 30% to 50% reductions in pain,[9]; of 30 patients,23%
same,share of patients with no pain relief and/or reported side effects,[9]; of 30 patients,17%
same,share of patients with pain reductions of 60% or greater,[9]; of 30 patients,30%
same,share of patients with slight (less than 25%) pain reductions,[9]; of 30 patients,17%
same,neuronal or glial uptake of [3H]-GABA,rat hippocampal slices,without affecting
same,"effect on voltage-dependent, transient inward currents (T-type Ca2+ currents)",T-type Ca2+ currents,reduces
same,"effect on voltage-dependent, transient inward currents (T-type Ca2+ currents)",T-type Ca2+ currents; listed as Zonisamide,blocks
same,dopaminergic and serotonergic neurotransmission,[10],facilitates
